Experimental data published in patent publication US20180179596A1, “HISTONE MODIFICATION AGENTS FOR CANCER TREATMENT” (MOR RESEARCH APPLICATIONS LTD., priority 2015, published 2018).

Key:
[1] = test system: histone H3 acetylation in NALM6 cells overexpressing KANSL1; experiment: Histone H3 acetylation quantification in NALM6 cells overexpressing KANSL1 after MG-149 treatment; format: cell-based, human; conditions: 20 μM MG-149 added 24 h after KANSL1 plasmid transfection; histones extracted 48 h after transfection; FIG. 15
Experimental: NALM6 cell line was grown in RPMI (ATCC) supplemented with 10% fetal bovine serum (FBS) (Life Technologies), 0.1% L-Glutamine and 0.1% Penicillin Streptomycin (PS) (Life Technologies). Cells were cultured in a humidified atmosphere in an incubator at 37° C. with 5% CO2. Plasmid overexpression transfection was done by electroporation, using the Amaxa® Nucleofector technology (Lonza). Purified plasmid was sent to Maxi-Prep (Hy-Labs) and a concentration of 2 μg was taken for the transfection. As a negative control, a Green Fluorescent Protein (GFP) plasmid provided by the Amaxa kit was used.
Histones were extracted 48 h after transfection. Total histone protein concentration was adjusted to 400 ng/μl. Histone acetylation quantification was analyzed according to the manufacture's protocol (Epigentek).

[2] = test system: MYST type of histone acetyltransferase (Tip60 and MOF); conditions: cited from earlier work

In the case of CCCCCCCc1ccc(CCc2cccc(O)c2C(=O)O)cc1 [MG-149], the “acetylation of histone H3 (total H3 acetylation level)” value [1] is given as “inhibited to near control levels” and the “selectivity toward MYST type histone acetyltransferase” value [2] is given as “selectivity toward the MYST type of histone acetyltransferase (Tip60 and MOF)”.
